tested on: INS-1E rat beta cells, no cytokines, CellTiter-Glo ATP, 48 h; test: ATP level change in INS-1E without cytokines, dose response, counter-screen for beta-cell apoptosis protection project, INS-1E rat cells, ATP luminescence, cherry pick (AID 463229)

| Compound | AC50 |
| --- | --- |
| O=C(NNc1c(Cl)cc(Cl)cc1Cl)c1cccc([N+](=O)[O-])c1 | 3.08 µM |
| O=[N+]([O-])c1ccc(-c2nc(C(Cl)Cl)c3ccccc3n2)cc1 | 1.66 µM |
| CCCc1cc(=O)n2[nH]cc(-c3ccc(Cl)cc3)c2n1 | 11.9 µM |
| Nc1c(Cl)ncnc1N/N=C/c1ccc2ccccc2n1 | 4.38 µM |
| COc1ccc(C[C@H]2CN3C(=NC[C@@H]3Cc3ccccc3)N2CCNC(=O)CCC2CCCCC2)cc1 | 12.1 µM |
| CCOc1cc(/C=C2\CCC/C(=C\c3cc(Cl)c(O)c(OCC)c3)C2=O)cc(Cl)c1O | 7.28 µM |
| COC(=O)c1ccc2[nH]c3cccc(/C(=C/c4ccccc4)c4ccccc4)c3c2c1 | 15.7 µM |
| O=[N+]([O-])c1ccc(Sc2cccc3cccnc23)c([N+](=O)[O-])c1 | 14.5 µM |
| CC1=C(C)/C(=N\OS(=O)(=O)c2ccc(C)cc2)C=CC1=O | 4.47 µM |
| Cn1c(-c2ccccc2)cc2c3no[n+]([O-])c3ccc21 | 7.82 µM |
| COc1cccc(/C=N/NC(=O)c2ccoc2C)c1O | 11 µM |
| Cn1nccc1C(=O)NC1CCCc2c1cnn2-c1ccc(C(C)(C)C)cc1 (stereo not given) | 2.11 µM |
| CCCCOc1ncnc2c1[nH]c1ccc(F)cc12 | 5.3 µM |
| CCC(=O)NC(c1ccc(Cl)cc1Cl)c1ccc2cccnc2c1O (stereo not given) | 2.34 µM |
| N#CC(c1ccc(Cl)cc1)c1ccc2c(C(F)(F)F)cc(C(F)(F)F)nc2n1 (stereo not given) | 0.898 µM |
| O=[N+]([O-])c1ccc(NC(=S)NCCc2ccc(F)cc2)cc1 | 7.46 µM |
| CN(C)C1=NC[C@H](Cc2ccccc2)N1CCCC1CCCCC1 | 13.6 µM |
| CCN(CC)c1ccc(CNc2nc3ccccc3n2CCN2CCCCC2)cc1 | 7.26 µM |
| C=C1C(=O)O[C@H]2C[C@@H](C)[C@@H]3C=CC(=O)[C@@]3(C)C[C@H]12 | 7.64 µM |
| CCCC(=O)NC(c1ccccc1OC)c1ccc2cccnc2c1O (stereo not given) | 3.28 µM |
| Oc1ccccc1C(Nc1nccs1)c1ccc2cccnc2c1O (stereo not given) | 4.91 µM |
| O=C(/C(=C/c1cccc(Cl)c1)c1nc2ccccc2[nH]1)c1ccccc1 | 4.36 µM |

| Compound | AC50 |
| --- | --- |
| COc1cccc(CN2CCC(N(CCc3ccccc3)Cc3ccccc3)CC2)c1OC | 14.7 µM |
| c1ccc(CSc2ccc(-c3ccccn3)nn2)cc1 | 18.8 µM |
| COCCNc1nc2c(c(=O)n(C)c(=O)n2C)n1Cc1cccc(C(F)(F)F)c1 | 12.1 µM |
| CCc1cc(C(=O)NC2CCCc3c2cnn3-c2cccc(C)c2C)n(C)n1 (stereo not given) | < 0.195 µM |
| O=C(Nc1nc(-c2ccccc2)cs1)c1ccccc1NS(=O)(=O)c1ccc(F)cc1 | 4.56 µM |
| CCCCCCC(=O)N1C/C=C\C(c2ccc(OC)cc2)N(Cc2ccc(F)cc2)C(=O)[C@H]1Cc1ccccc1 (stereo not given in full) | 5.73 µM |
| COc1ccc([N+](=O)[O-])c(S(=O)(=O)c2ccc(Cl)cc2)n1 | 7.61 µM |
| COc1cc(SC#N)ccc1N=Cc1c(C)[nH]n(-c2ccc(C)c(C)c2)c1=O | 5.85 µM |
| Cc1cccc(NC(=S)N/N=C/c2ccc([N+](=O)[O-])s2)c1 | 7.67 µM |
| Cc1sc2ncnc(N3CCN(S(=O)(=O)c4ccccc4)CC3)c2c1C | 5.98 µM |
| CCCCCCCCCn1c2c(c(=N)c3c1CCC3)CCC2 | < 0.195 µM |
| CC(=O)NC(c1cccc([N+](=O)[O-])c1)c1ccc2cccnc2c1O (stereo not given) | 2.58 µM |
| Cc1ccc2c(c1)N(C)/C(=C/c1cccc[n+]1CCO)S2 | 3.18 µM |
| CCn1cc(/C=C/c2cc[n+](C)cc2)c2ccccc21 | 4.44 µM |
| COc1ccc(C(=O)N/N=C/c2sc3ccccc3c2O)cc1 | 7.83 µM |
| COc1ccc(C2/C=C\CN(C(=O)Nc3ccc(C(F)(F)F)cc3)CC(=O)N2Cc2ccc(F)cc2)cc1 (stereo not given) | 7.66 µM |
| CCOc1ccc2nc(NC(=O)c3cccc(-c4cc5ccccc5oc4=O)c3)sc2c1 | 3.31 µM |
| C1=C(CCNc2ncnc3c2[nH]c2ccccc23)CCCC1 | 0.489 µM |
| COCc1ccc(O)c2ncccc12 | 15.9 µM |
| CCN(CC)S(=O)(=O)c1ccc(N/N=C/c2cc(OC)ccc2O)nc1 | 4.24 µM |
| O=C(/C(=C/c1ccc(Cl)cc1)c1nc2ccccc2[nH]1)c1cccs1 | 4.4 µM |
| CCOC(=O)CS(=O)(=O)c1nc(-c2ccccc2)cc(C(F)(F)F)n1 | 8.1 µM |

| Compound | AC50 |
| --- | --- |
| Cn1nccc1C(=O)NC1CCCc2c1cnn2-c1ccc(F)cc1F (stereo not given) | 2.48 µM |
| O=C(Nc1ccccc1Cl)/C(Cl)=C(\Cl)S(=O)c1ccccc1 (stereo not given) | 2.9 µM |
| O=C(NCCOc1cccnc1)c1ccc(OC2CCN(Cc3ccccn3)CC2)cc1 | < 0.195 µM |
| COc1ccc(CCNc2ncnc3sccc23)cc1OC | 1.13 µM |
| C[N+]1=C(/C=C/Nc2ccccc2Cl)C(C)(C)c2ccccc21 | 12.2 µM |
| COCCN(C(=O)COC(=O)C1CCC(C(C)(C)C)CC1)c1c(N)n(Cc2ccccc2)c(=O)[nH]c1=O (stereo not given) | 2.17 µM |
| CCN1CCN(CCCNC(=O)c2ccc3c(c2)NC(=O)/C(=C\c2cccc(C)c2)S3)CC1 | 12.3 µM |
| O=[N+]([O-])c1ccc(N=Nc2c(Cl)cc(O)cc2Cl)cc1 | 2.08 µM |
| CC(C)(C)n1ncc2c(=O)n(Cc3cccc(Cn4cnc5c(cnn5C(C)(C)C)c4=O)c3F)cnc21 | 4.32 µM |
| Oc1ccc(Br)cc1-c1cc(-c2ccc(Cl)cc2)n[nH]1 | 11.1 µM |
| CCOc1ccc(C(Nc2cccnc2)c2cc(Cl)c3cccnc3c2O)cc1 (stereo not given) | 7.33 µM |
| O=C(O)c1ccc(S(=O)(=O)/N=C2\C=C(Nc3ccccc3F)C(=O)c3ccccc32)cc1 | 7.91 µM |
| CC(=O)NC(c1ccco1)c1cc(F)c2cccnc2c1O (stereo not given) | 10.6 µM |
| NS(=O)(=O)c1ccc(N/N=C2/CCCCC2C2CCCCC2)c([N+](=O)[O-])c1 (stereo not given) | 8.1 µM |
| COc1ccc(CN(C)c2ccc(S(=O)(=O)N3CCN(C)CC3)cc2[N+](=O)[O-])cc1OC | 2.83 µM |
| Cc1nc(Nc2cnc(/C=C/c3cc(C(=O)Nc4cccc(C(F)(F)F)c4)ccc3C)cn2)cc(N2CCNCC2)n1 | 12.3 µM |
| CCCCCCCCCCCCCCCC[N+](C)(C)CCN(Cc1ccc(OC)cc1)c1ncccn1 | 4.23 µM |
| CC1CCC(C(C)C)C(OC(=O)Cn2c(-c3ccc(Cl)cc3)[n+](C)c3ccccc32)C1 (stereo not given) | 3.83 µM |
| Cc1ccccc1NC1=C/C(=N\S(=O)(=O)c2ccc(C(=O)O)cc2)c2ccccc2C1=O | 12 µM |
| CCCCC[n+]1cccc2c3ccccc3ccc21 | 5.92 µM |
| COc1ccc(C2NCCc3c2[nH]c2ccccc32)cc1COc1ccc(F)cc1 (stereo not given) | 14 µM |
| CC(C)C(=O)NC(c1cccs1)c1cc([N+](=O)[O-])c2cccnc2c1O (stereo not given) | 9.51 µM |

| Compound | AC50 |
| --- | --- |
| Cc1ccc2c(c1)c(/C=C/c1cc[n+](C)cc1)c(C)n2C | 3.97 µM |
| O=C(CCC(=O)Nc1ccc(Cl)cc1Cl)N/N=C/c1ccc([N+](=O)[O-])o1 | 13.8 µM |
| Cc1ccccc1OCCCCn1cnc2ccccc21 | 7.47 µM |
| O=C(Nc1cccc(Cl)c1)Nc1nnc(-c2ccncc2)s1 | 6.36 µM |
| Cc1cc(N/N=C/c2ccc(O)cc2O)nc(-c2ccccc2O)n1 | 7.47 µM |
| COc1ccc(C(=O)N/N=C/c2ccccc2OC(=O)c2ccccc2)cc1 | 7.93 µM |
| O=[N+]([O-])c1ccc(NC(=S)NCCc2ccc(Cl)cc2)cc1 | 8.12 µM |
| COc1cnc(-c2ccccn2)nc1Sc1ccc(C)cc1 | 17.2 µM |
| C/C(=N\NC(=O)Cc1ccc(Cl)cc1)c1ccccn1 | 4.89 µM |
| COc1ccc(CNC[C@@H](CCCCN(C)Cc2ccc(OC)cc2)N2C[C@H](c3ccccc3)N(CCc3ccc(Cl)c(Cl)c3)C(=O)C2=O)cc1 | 7.17 µM |
| O=C(N/N=C/c1ccccc1O)/C(=C/c1ccccc1)CCO | 7.67 µM |
| CC(=O)c1cccc(NS(=O)(=O)c2ccc(N/C=C\C(=O)c3ccc(F)cc3)cc2)c1 | 4.97 µM |
| O=C(Nc1ccc(S(=O)(=O)N2CCOCC2)cc1)c1ccc([N+](=O)[O-])s1 | 6.8 µM |
| O=C(NCc1cccnc1)Nc1ccc([N+](=O)[O-])cc1 | 11.8 µM |
| CCN1/C(=C\C=C\C2=[N+](CC)c3ccccc3C2(C)C)C(C)(C)c2ccccc21 | < 0.195 µM |
| CCOC(=O)N1CCN(C(=O)CSCC(=O)Nc2nc(-c3ccc(-c4ccccc4)cc3)cs2)CC1 | 4.49 µM |
| COc1ccccc1-n1c(=O)oc2ccc(Cl)cc2c1=O | 11.8 µM |
| CCOC(=O)/C(=C\c1ccc(OC(F)F)cc1)C1=Nn2c(nnc2-c2ccc(Cl)cc2)SC1 | 5.5 µM |
| CCOc1cccc(/C=N/NC(=O)c2cc(C3CC3)[nH]n2)c1O | 7.83 µM |
| O=S(=O)(c1ccc2c(c1)OCCO2)N1CCN(c2ncnc3sccc23)CC1 | 4.9 µM |
| Cc1cc(N2CCN(S(=O)(=O)c3ccc(Cl)cc3)CC2)c2ccccc2n1 | 7.4 µM |
| CCC1(OC(=O)CN)C(=O)OCc2c1cc1n(c2=O)Cc2cc3ccccc3nc2-1 (stereo not given) | < 0.195 µM |

| Compound | AC50 |
| --- | --- |
| COc1ccc(Sc2nc(-c3ccccn3)ncc2OC)cc1 | 19.3 µM |
| Cc1nc2ccccc2n1-c1nc(-c2ccco2)cc(C(F)(F)F)n1 | 1.86 µM |
| N#C/C(=C/c1ccc(N2CCCCCC2)o1)c1ccc(Cl)cc1 | 24.3 µM |
| Cc1ccc(C)c(NC(=O)/C(C#N)=C/c2cn(CC(=O)NCc3ccco3)c3ccccc23)c1 | 5.47 µM |
| Cn1ncc2c(O/N=C(\N)c3ccc(C(C)(C)C)cc3)ncnc21 | 6.59 µM |
| C/C(=N\NC(=O)c1ccc(NS(=O)(=O)c2cccs2)cc1)c1ccccn1 | 13.3 µM |
| N=c1ccn(CC(=O)c2ccc(-c3ccccc3)cc2)cc1 | 1.94 µM |
| CCN1c2ccccc2NC2N=C(OC)C(c3ccccc3)C21 (stereo not given) | 13.1 µM |
| Cc1cc(N/N=C/c2ccc(F)cc2)nc(-n2nc(C)cc2C)n1 | 20.1 µM |
| COc1ccc(CC(=O)Nc2cccc(S(=O)(=O)N3CCCCCC3)c2)cc1OC | 10 µM |
| CC(C)CC(=O)NC(c1cccs1)c1ccc2cccnc2c1O (stereo not given) | 2.33 µM |
| CC(=O)Nc1ccc(Nc2c3ccccc3nc3ccccc23)cc1 | 7.08 µM |
| C/C(=N\NC(=O)c1ccccc1Cl)c1ccccn1 | 5.98 µM |
| OC(c1cc(-c2ccc(C(F)(F)F)cc2)nc(C(F)(F)F)c1)C1CCCCN1 (stereo not given) | 6.81 µM |
| Cc1cc(N/N=C\c2ccc(Br)cc2)nc(-n2nc(C)cc2C)n1 | 21.5 µM |
| Cc1ccc2[nH]c(C(=O)N/N=C/c3ccccc3O)c(C)c2c1 | 2.33 µM |
| Cc1cc2nc(-c3ccc[nH]c3=O)[nH]c2cc1C | 2.42 µM |
| CC(=O)NN1C(=O)c2ccc3c4c(ccc(c24)C1=O)C(=O)N(NC(C)=O)C3=O | 3.65 µM |
| Cc1ccc(NC(=O)COc2ccc(N(C)C(=O)C(C)(C)C)cc2)cc1S(=O)(=O)N1CCCCC1 | 5.78 µM |
| COc1ccc(-n2cc(-c3ccccc3)[n+]3c2CCCCC3)cc1 | 1.94 µM |
| CCCCCCc1cc2cc(-c3nnc(-c4ccccc4)o3)c(=O)oc2cc1O | 7.25 µM |
| C=C(C(=O)c1ccccc1)C(C)C(=C)C(=O)c1ccccc1 | 7.84 µM |
